From patent publication US4782135A (priority 1983, dated 1988)
Read-outs that look alike come from different tables or passages of the source.

Legend:
[1] = test system: coxsackie (COX) A21; type: cell-based, coxsackie virus
[2] = test system: equine rhinovirus (ER); type: cell-based
[3] = test system: herpes simplex virus (HSV) type 1; type: cell-based, herpes simplex virus type 1
[4] = test system: herpes simplex virus (HSV) type 2; type: cell-based, herpes simplex virus type 2
[5] = test system: L1210 mouse leukemia cells; assay: L1210 tube dilution assay; type: cell-based; details: for ID50: concentration to inhibit L1210 cell growth by 50 percent; for ID90: concentration to inhibit L1210 cell growth by 90 percent
Description: The L1210 tube dilution assay is described in detail in a publication by L. H. Li, et al., Cancer Research 39: 4816 (1979).

[6] = test system: P388 leukemia; assay: In vivo P388 mouse leukemia test; set-up: species or system mice
Description: The P388 mouse leukemia test is described in detail in a publication by G. L. Neil, et. al., Cancer Treatment Reports 63, 1971-1978 (1979).
^a Schedule of Injection: daily intraperitoneal injection for 9 days
following tumor implantation.
^b Median survival time of control animals = 10.3 days.
^a Schedule of injection: Intraperitoneal injection on Day 1, 5, and
9, following Tumor inoculation.
^b Median survival time of Control (no drug) animals: 10.2 days.

[7] = test system: ML cells
[8] = test system: Vero cells
[9] = for Solubility in organic solvents: methanol, ethanol, isopropanol, dioxane, ethyl acetate, and chloroform
[10] = ML cells infected with coxsackie A21
[11] = ML cells infected with equine rhinovirus
[12] = 63 μg/kg/injection, daily i.p. for 9 days
[13] = 63 μg/kg/injection, daily i.p. for 9 days, control 10.3 days
[14] = 125 μg/kg/injection, daily i.p. for 9 days
[15] = 125 μg/kg/injection, daily i.p. for 9 days, control 10.3 days
[16] = 250 μg/kg/injection, daily i.p. for 9 days
[17] = 250 μg/kg/injection, daily i.p. for 9 days, control 10.3 days
[18] = 250 μg/kg/injection, i.p. on Day 1, 5 and 9
[19] = 250 μg/kg/injection, i.p. on Day 1, 5 and 9, control 10.2 days
[20] = 500 μg/kg/injection, daily i.p. for 9 days
[21] = 500 μg/kg/injection, i.p. on Day 1, 5 and 9
[22] = 500 μg/kg/injection, i.p. on Day 1, 5 and 9, control 10.2 days
[23] = 1000 μg/kg/injection, daily i.p. for 9 days
[24] = 1000 μg/kg/injection, i.p. on Day 1, 5 and 9
[25] = 1000 μg/kg/injection, i.p. on Day 1, 5 and 9, control 10.2 days
[26] = 2000 μg/kg/injection, daily i.p. for 9 days
[27] = 2000 μg/kg/injection, i.p. on Day 1, 5 and 9
[28] = 4000 μg/kg/injection, i.p. on Day 1, 5 and 9
[29] = 8000 μg/kg/injection, i.p. on Day 1, 5 and 9
[30] = uninfected ML cells, 50% cell destruction, overnight incubation
[31] = uninfected Vero cells, 50% cell destruction, overnight incubation
[32] = 30 μg/kg/injection, i.p. on Day 1, 5 and 9
[33] = 60 μg/kg/injection, i.p. on Day 1, 5 and 9
[34] = 120 μg/kg/injection, i.p. on Day 1, 5 and 9

Substance: didemnin A
- Ratio (cytotoxic concentration ÷ antiviral concentration), cox virus ([1]; ML cells): 17
- ID50 Antiviral-cox virus [1, 10]: 1.5 µg/mL
- Ratio (cytotoxic concentration ÷ antiviral concentration), ER virus ([2]; ML cells): 17
- ID50 Antiviral-ER virus [2, 11]: 1.5 µg/mL
- Ratio (cytotoxic concentration ÷ antiviral concentration), HSV-1 virus ([3]; Vero cells): 17
- ID50 Antiviral-HSV-1 virus ([3]; Vero cells infected with HSV-1): 3 µg/mL
- Ratio (cytotoxic concentration ÷ antiviral concentration), HSV-2 virus ([4]; Vero cells): 33
- ID50 Antiviral-HSV-2 virus ([4]; Vero cells infected with HSV-2): 1.5 µg/mL
- ID50 [5]: 0.019 µg/mL
- ID90 [5]: 0.058 µg/mL
- Inhibition of growth of L1210 mouse leukemia cells in vitro (words) [5]: inhibit the growth
- T/C [6, 12]: 104%
- Weight Change [6, 12]: +0.9 g
- Median Survival Time [6, 13]: 10.7 days
- T/C [6, 14]: 115%
- Weight Change [6, 14]: +1.4 g
- Median Survival Time [6, 15]: 11.9 days
- T/C [6, 16]: 119%
- Weight Change [6, 16]: +1.0 g
- Median Survival Time [6, 17]: 12.2 days
- T/C [6, 18]: 109%
- Weight Change [6, 18]: +1.7 g
- Median Survival Time [6, 19]: 11.1 days
- T/C [6, 20]: 129%
- Weight Change [6, 20]: +0.9 g
- Median Survival Time ([6]; 500 μg/kg/injection, daily i.p. for 9 days, control 10.3 days): 13.2 days
- T/C [6, 21]: 118%
- Weight Change [6, 21]: +1.6 g
- Median Survival Time [6, 22]: 12.1 days
- T/C [6, 23]: 158%
- Weight Change [6, 23]: +0.3 g
- Median Survival Time ([6]; 1000 μg/kg/injection, daily i.p. for 9 days, control 10.3 days): 16.2 days
- T/C [6, 24]: 118%
- Weight Change [6, 24]: +1.8 g
- Median Survival Time [6, 25]: 12.1 days
- T/C [6, 26]: 155%
- Weight Change [6, 26]: -0.2 g
- Median Survival Time ([6]; 2000 μg/kg/injection, daily i.p. for 9 days, control 10.3 days): 16.0 days
- T/C [6, 27]: 121%
- Weight Change [6, 27]: +2.0 g
- Median Survival Time ([6]; 2000 μg/kg/injection, i.p. on Day 1, 5 and 9, control 10.2 days): 12.4 days
- T/C [6, 28]: 130%
- Weight Change [6, 28]: +1.3 g
- Median Survival Time ([6]; 4000 μg/kg/injection, i.p. on Day 1, 5 and 9, control 10.2 days): 13.3 days
- T/C [6, 29]: 140%
- Weight Change [6, 29]: +0.8 g
- Median Survival Time ([6]; 8000 μg/kg/injection, i.p. on Day 1, 5 and 9, control 10.2 days): 14.3 days
- Activity in vivo against P388 leukemia in mice [6]: active
- ID50 Toxicity-ML cells [7, 30]: 25 µg/mL
- ID50 Toxicity-Vero cells [8, 31]: 50 µg/mL
- Solubility in organic solvents [9]: soluble
- Solubility in toluene [9]: sparingly soluble
- Solubility in water [9]: insoluble

Substance: didemnin B
- ID50 Antiviral-cox virus [1, 10]: < 1.5 µg/mL
- ID50 Antiviral-ER virus [2, 11]: < 1.5 µg/mL
- Ratio (cytotoxic concentration ÷ antiviral concentration), HSV-1 virus ([3]; Vero cells): 8
- ID50 Antiviral-HSV-1 virus ([3]; Vero cells infected with HSV-1): 1.5 µg/mL
- Ratio (cytotoxic concentration ÷ antiviral concentration), HSV-2 virus ([4]; Vero cells): 8
- ID50 Antiviral-HSV-2 virus ([4]; Vero cells infected with HSV-2): 1.5 µg/mL
- ID50 [5]: 0.0018 µg/mL
- ID90 [5]: 0.0059 µg/mL
- Inhibition of growth of L1210 mouse leukemia cells in vitro (words) [5]: inhibit the growth
- Inhibition of growth of L1210 mouse leukemia cells in vitro (words) ([5]; listed as didemnin B): inhibit
- T/C [6, 32]: 125%
- Weight Change [6, 32]: +1.6 g
- Median Survival Time ([6]; 30 μg/kg/injection, i.p. on Day 1, 5 and 9, control 10.2 days): 12.8 days
- T/C [6, 33]: 140%
- Weight Change [6, 33]: +1.2 g
- Median Survival Time ([6]; 60 μg/kg/injection, i.p. on Day 1, 5 and 9, control 10.2 days): 14.3 days
- T/C [6, 12]: 143%
- Weight Change [6, 12]: +0.1 g
- Median Survival Time [6, 13]: 14.8 days
- T/C [6, 34]: 147%
- Weight Change [6, 34]: +0.2 g
- Median Survival Time ([6]; 120 μg/kg/injection, i.p. on Day 1, 5 and 9, control 10.2 days): 15.0 days
- T/C [6, 14]: 136%
- Weight Change [6, 14]: -0.6 g
- Median Survival Time [6, 15]: 14.0 days
- T/C [6, 16]: 138%
- Weight Change [6, 16]: -2.2 g
- Median Survival Time [6, 17]: 14.2 days
- T/C [6, 18]: 157%
- Weight Change [6, 18]: -0.5 g
- Median Survival Time [6, 19]: 16.0 days
- Weight Change [6, 20]: -3.4 g
- T/C [6, 21]: 176%
- Weight Change [6, 21]: -1.7 g
- Median Survival Time [6, 22]: 18.0 days
- T/C [6, 24]: 199%
- Weight Change [6, 24]: -3.8 g
- Median Survival Time [6, 25]: 20.3 days
- Activity in vivo against P388 leukemia in mice [6]: active
- ID50 Toxicity-ML cells [7, 30]: < 1.5 µg/mL
- ID50 Toxicity-Vero cells [8, 31]: 12 µg/mL
- Solubility in organic solvents [9]: soluble
- Solubility in toluene [9]: sparingly soluble
- Solubility in water [9]: insoluble

Substance: didemnin C
- ID50 Antiviral-cox virus [1]: < 1.5
- Ratio (cytotoxic concentration ÷ antiviral concentration), cox virus [1]: > 4
- ID50 Antiviral-ER virus [2]: < 1.5
- Ratio (cytotoxic concentration ÷ antiviral concentration), ER virus [2]: > 4
- ID50 Antiviral-HSV-1 virus [3]: < 1.5
- Ratio (cytotoxic concentration ÷ antiviral concentration), HSV-1 virus [3]: > 33
- ID50 Antiviral-HSV-2 virus [4]: < 1.5
- Ratio (cytotoxic concentration ÷ antiviral concentration), HSV-2 virus [4]: > 33
- ID50 Toxicity-ML cells [7]: 6
- ID50 Toxicity-Vero cells [8]: 50
